Assay results taken from patent publication US8883836B2, “Solid forms of bendamustine hydrochloride” (Cephalon, Inc., priority 2008, dated 2014).

Experiments:
[1] = Storage of solid forms under temperature/humidity or ambient conditions, XRPD re-analysis; assay type: physicochemical; details: for change on storage: 24 hours under ambient conditions
[2] = Gravimetric Vapor Sorption (GVS); assay type: physicochemical; details: for solid form by XRPD re-analysis after GVS humidity cycles: reanalysis under ambient conditions, hydrochloride
Protocol: Gravimetric Vapor Sorption (GVS)
Sorption isotherms were obtained using a Hiden IGASorp moisture sorption analyser, controlled by CFRSorp software. The sample temperature was maintained at 25° C. by a Huber recirculating water bath. The humidity was controlled by mixing streams of dry and wet nitrogen, with a total flow rate of 250 ml·min-1. The relative humidity was measured by a calibrated Vaisala RH probe (dynamic range of 0-95% RH), located near the sample. The weight change, (mass relaxation) of the sample as a function of % RH was constantly monitored by themicrobalance (accuracy ±0.001 mg). Typically 1-3 mg of sample was placed in a tared mesh stainless steel basket under ambient conditions. The sample was loaded and unloaded at 40% RH and 25° C. (typical room conditions). A moisture sorption isotherm was performed as outlined below (2 scans giving 1 complete cycle). The standard isotherm was performed at 25° C. at 10% RH intervals over a 0-90% RH range.
The software uses a least squares minimization procedure together with a model of the mass relaxation, to predict an asymptotic value. The measured mass relaxation value must be within 5% of that predicted by the software before the next % RH value is selected. The minimum equilibration time was set to 1 hour and the maximum to 4 hours.

[3] = Thermodynamic Aqueous Solubility by HPLC; assay type: physicochemical
Protocol: Thermodynamic Aqueous Solubility by HPLC
Aqueous solubility was determined by suspending sufficient compound in 0.25 ml of water to give a maximum final concentration of ≧10 mg·ml^−1 of the parent free-form of the compound. The suspension was equilibrated at 25° C. for 24 hours (unless otherwise stated) after which the pH was measured. The suspension was then filtered through a glass fibre C filter into a 96 well plate. The filtrate was then diluted by a factor of 100 times. Quantitation was by HPLC with reference to a standard solution of approximately 0.1 mg·ml-1 in DMSO. Different volumes of the standard, diluted and undiluted sample solutions were injected. The solubility was calculated using the peak areas determined by integration of the peak found at the same retention time as the principal peak in the standard injection.

[4] = pKa Determination (Sirius GlpKa, UV); assay type: physicochemical; details: by UV in aqueous conditions, 25° C.
Protocol: pKa Determination and Prediction
Data were collected on a Sirius GlpKa instrument with a D-PAS attachment. Measurements were made at 25° C. in aqueous solution by UV. The compound was initially dissolved in DMSO at 5 mg/ml of which 50 μl (0.25 mg) was used for the titration from pH 1.3 to 9.0. The titration media was ionic-strength adjusted (ISA) with 0.15 M KCl (aq). The data were refined using Refinement Pro software v1.0. Prediction of pKa values was made using ACD pKa prediction software v9.

[5] = Log P Determination (potentiometric titration, octanol:ISA water); assay type: physicochemical
Excerpt: Data were collected by potentiometric titration on a Sirius GlpKa instrument using three ratios of octanol:ionic-strength adjusted (ISA) water to generate Log P, Log Pion, and Log D values. The data were refined using Refinement Pro software v1.0. Prediction of Log P values was made using ACD v9 and Syracuse KOWWIN v1.67 software.

[6] = Preparation of solutions: solubility of Form 1 in solvents; details: for Volume Added: 50 mg Form 1, aliquots with heating to 50° C. until clear solution
Protocol: Preparation of Solutions of Bendamustine Hydrochloride
50 mg of bendamustine hydrochloride Form 1 was weighed into a screw-top vial. Solvent was added in aliquots (with heating to 50° C.) until a clear solution was obtained.

[7] = Maturation Experiment (slurry of Form 1 in solvents, XRPD); assay type: physicochemical; details: slurry 48 hours, 4 hour periods at 50 C and ambient
Protocol: Approximately 10 mg of Form 1 bendamustine hydrochloride was slurried in the solvents list in Table 3. The slurries were shaken for 48 hours with alternating 4 hour periods at 50 C and ambient temperature. Any solid material was then isolated by filtration and analyzed by XRPD. Solutions were allowed to evaporate.

[8] = Stability of Forms 1 and 2 (temperature/humidity storage, XRPD); assay type: physicochemical; details: for purity after storage: 4° C./87% RH (5) and 60° C./75% RH (13) for 6 weeks; for kinetic stability on storage: 6 weeks at 4° C./34 to 76% RH, 25° C./43 to 75% RH and 60° C./11 to 75% RH
Protocol: Stability of Forms 1 and 2 of Bendamustine Hydrochloride
10 mg of bendamustine hydrochloride Form 1 (A), bendamustine hydrochloride Form 2 (B), and a 1:1 mixture of Forms 1 and 2 (C) were stored under the conditions listed in Table 7. Samples were analyzed by XRPD at 1 day, 2 week, and 6 week time points. […] The rate of this conversion appears to increase with temperature. The purity of Forms 1 and 2 after storage at 4° C./87% RH (5) and 60° C./75% RH (13) for 6 weeks was measured.

[9] = Light Stability (Suntest Light Box); assay type: physicochemical; details: for change in crystallinity and purity during light stress test: 25° C.; for Purity (%): HPLC
Protocol: Light Stability of Bendamustine Hydrochloride
Samples of Form 1 and Form 2 of Bendamustine Hydrochloride were stressed in a Suntest Light Box with a light intensity of 250 watts/m2 for 1 week with the black body temperature set to 25° C. A blank of each sample, wrapped in foil for protection, was also included in the experiment. After the experiment, samples were analyzed by XRPD and the purity was determined by HPLC.

[10] = 1 week at 40° C./75% RH, hydrochloride
[11] = 250 watts/m2, 1 week, hydrochloride
[12] = blank wrapped in foil, 1 week in light box
[13] = light stressed, 250 watts/m2, 1 week, hydrochloride

Cl.Cn1c(CCCC(=O)O)nc2cc(N(CCCl)CCCl)ccc21 [Form 4, bendamustine hydrochloride]
change on storage ([1]; hydrochloride): converted to Form 2

Cl.Cn1c(CCCC(=O)O)nc2cc(N(CCCl)CCCl)ccc21 [Form 1, bendamustine hydrochloride]
hygroscopicity ([2]; GVS, 0 to 90% RH): low hygroscopicity | weight increase (hygroscopicity) ([2]; between 0 and 90% relative humidity (RH)): 0.7% | solid form by XRPD re-analysis after GVS humidity cycles [2]: did not lead to a significant change in XRPD pattern | change on storage (XRPD) [1, 10]: no significant changes | change on storage (XRPD) ([1]; 2 months at 25° C./94% RH): converted to a hydrate of bendamustine hydrochloride (Form 2) | change on storage (XRPD) ([1]; 3 weeks at 40° C./11% RH): no significant changes | change on storage (XRPD) ([1]; one month at 25° C./94% RH): in the process of converting to Form 2 | solution pH ([3]; saturated aqueous solution of the solubility experiment): 2.16 | degradation of sample in aqueous solubility experiment ([3]; water): significant degradation occurred | aqueous solubility ([3]; water, 25° C., 24 hours, significant degradation occurred): 4.5 mg/mL | pKa (Acid) [4]: 4.17 | LogP ([5]; octanol:ISA water): 1.10 | LogD ([5]; pH7.4): 0.68 | Solution Obtained? ([6]; Acetic acid, 50 mg in 1 ml): Yes (50° C.) | Volume Added ([6]; Acetic acid): 1000 µL | Solution Obtained? ([6]; DMA, 50 mg in 500 μl): Yes (50° C.) | Volume Added ([6]; DMA): 500 µL | Solution Obtained? ([6]; DMF, 50 mg in 500 μl): Yes (50° C.) | Volume Added ([6]; DMF): 500 µL | Solution Obtained? ([6]; DMSO, 50 mg in 100 μl): Yes (50° C.) | Volume Added ([6]; DMSO): 100 µL | Solution Obtained? ([6]; Ethanol, 50 mg in 1 ml): Yes (50° C.) | Volume Added ([6]; Ethanol): 1000 µL | Solution Obtained? ([6]; Formamide, 50 mg in 1 ml): Yes (50° C.) | Volume Added ([6]; Formamide): 1000 µL | Solution Obtained? ([6]; Methanol, 50 mg in 100 μl): Yes (50° C.) | Volume Added ([6]; Methanol): 100 µL | XRPD Analysis after maturation ([7]; Acetone): Form 1 | XRPD Analysis after maturation ([7]; Acetonitrile): Form 1 | XRPD Analysis after maturation ([7]; Anisole): Form 1 | XRPD Analysis after maturation ([7]; DCM): Form 1 | XRPD Analysis after maturation ([7]; DIPE): Form 1 | XRPD Analysis after maturation ([7]; Diethyl ether): Form 1 | XRPD Analysis after maturation ([7]; Dioxane): Form 1 | XRPD Analysis after maturation ([7]; Ethanol): Form 1 | XRPD Analysis after maturation ([7]; Ethyl acetate): Form 1 | XRPD Analysis after maturation ([7]; Heptane): Form 1 | XRPD Analysis after maturation ([7]; IPA): Form 1 | XRPD Analysis after maturation ([7]; Isopropyl acetate): Form 1 | XRPD Analysis after maturation ([7]; MIBK): Form 1 | XRPD Analysis after maturation ([7]; Methyl acetate): Form 1 | XRPD Analysis after maturation ([7]; Nitromethane): Form 1 | XRPD Analysis after maturation ([7]; TBME): Form 1 | XRPD Analysis after maturation ([7]; THF): Form 1 | XRPD Analysis after maturation ([7]; Toluene): Form 1 | XRPD Analysis after maturation ([7]; Water): degradant | purity after storage [8]: No large purity decreases | kinetic stability on storage [8]: kinetically stable | form conversion on storage at high humidity ([8]; 60° C./95% RH, 25° C. 94% RH and possibly 4° C./88% RH for 6, 6 and 2 weeks respectively): conversion of Form 1 to 2 | form conversion under high humidity conditions ([8]; ~90% RH, rate appears to increase with temperature): conversion of Form 1 of bendamustine hydrochloride to Form 2 was observed | change in crystallinity and purity during light stress test [9, 11]: only a slight decrease in purity | stability to degradation in light ([9]; as compared to Form 2): more stable to degradation in light | XRPD [9, 12]: No change | Purity (%) ([9]; blank wrapped in foil, 1 week in light box, listed as Form 1 blank, hydrochloride): 97.3% | Purity (%) [9, 13]: 95.9% | XRPD [9, 13]: No change (sample brown in colour)

Cl.Cn1c(CCCC(=O)O)nc2cc(N(CCCl)CCCl)ccc21 [Amorphous bendamustine hydrochloride, bendamustine hydrochloride]
solid form by XRPD re-analysis after GVS humidity cycles [2]: converted to Form 2 | change on storage (XRPD) [1, 10]: partial crystallization occurred | change on storage ([1]; hydrochloride): became gummy | hygroscopicity ([1]; inferred from 24 hours under ambient conditions): hygroscopic

Cl.Cn1c(CCCC(=O)O)nc2cc(N(CCCl)CCCl)ccc21 [Form 3, bendamustine hydrochloride]
change on storage (XRPD) ([1]; 1 month under ambient conditions): No significant changes | change on storage (XRPD) [1, 10]: conversion to Form 2

Cl.Cn1c(CCCC(=O)O)nc2cc(N(CCCl)CCCl)ccc21 [Form 2, bendamustine hydrochloride]
uptake during GVS analysis ([2]; between 10 and 15% RH, equating to 1 mole of water): 4% | solid form by XRPD re-analysis after GVS humidity cycles [2]: partial conversion occurred | change on storage (XRPD) ([1]; one month at 40° C./11% RH): became less crystalline | change on storage (XRPD) ([1]; one month at 40° C./75% RH): no significant changes | purity after storage [8]: No large purity decreases | kinetic stability on storage [8]: kinetically stable | conversion of Form 2 to Form 1 on storage ([8]; after 6 weeks): No conversion of Form 2 to Form 1 | change in crystallinity and purity during light stress test [9, 11]: significant decrease in both crystallinity and purity | XRPD [9, 12]: No change | Purity (%) ([9]; blank wrapped in foil, 1 week in light box, listed as Form 2 blank, hydrochloride): 95.6% | Purity (%) [9, 13]: 68.7% | XRPD [9, 13]: Less crystalline (sample brown in colour)
